The values that follow come from patent US20240317775A1, “H4 Antagonist Compounds” (HEPTARES THERAPEUTICS LIMITED, priority 2020, published 2024).

In this experiment the target is T1, human H4 receptor (Homo sapiens, UniProt Q9H3N8).
T1 construct: expressed in transfected cells; host or cells: HEKf cells infected with baculovirus
Kind of experiment: H4 Antagonist Functional cAMP Gi Assay. In kind it is cell-based. To be noted: HEKf cells expressing human H4 receptor; functional antagonist pKb by Cheng-Prusoff vs histamine; read-out: Human H4 cAMP fpKb (converted). As for the experimental part: HEKf cells were infected overnight using baculovirus expressing the human H4 receptor, then centrifuged at 1,200 rpm for 5 min, frozen in cell freezing medium (Sigma) and stored at −150° C. On the day of assay, the cells were thawed and resuspended in HBSS with 500 nM IBMX to achieve a density of 1,500 cells/well. H4 ligands were prepared in DMSO and stamped by LabCyte ECHO acoustic dispensing at 25 nL in low volume plates. 10 μL/well cells were plated in the presence of 1 μM forskolin, subjected to centrifugation at 1,200 rpm for 1 min and incubated for 30 min prior to addition of Cisbio cAMP detection reagents to a total volume 20 μL/well. […] Following detection reagent addition and shaking at room temperature for 60 min, cAMP accumulation was measured using HTRF on a PheraStar plate reader. EC50 values were generated using a 4-parameter logistical fit equation to quantify agonist potencies. Functional antagonist affinity values were generated using the Cheng-Prusoff equation to calculate a pKb value using the antagonist assay data.

T1 sequence (Q9H3N8 whole entry): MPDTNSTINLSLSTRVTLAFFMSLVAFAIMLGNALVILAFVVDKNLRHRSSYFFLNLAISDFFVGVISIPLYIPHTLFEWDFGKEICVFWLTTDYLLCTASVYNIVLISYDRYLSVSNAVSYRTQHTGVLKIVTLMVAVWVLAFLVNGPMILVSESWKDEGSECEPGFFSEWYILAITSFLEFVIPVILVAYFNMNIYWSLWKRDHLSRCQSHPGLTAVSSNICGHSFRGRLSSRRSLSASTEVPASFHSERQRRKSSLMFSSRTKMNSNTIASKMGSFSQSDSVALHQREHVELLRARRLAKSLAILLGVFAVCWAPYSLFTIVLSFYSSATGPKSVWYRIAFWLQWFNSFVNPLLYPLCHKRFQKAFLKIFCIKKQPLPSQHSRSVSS

With `CC(C)[C@@H]1COc2c(nc(N)nc2N2CC(N)C2)N1` [Example 4-2, (R)-4-(3-Aminoazetidin-1-yl)-7-isopropyl-7,8-dihydro-6H-pyrimido[5,4-b][1,4]oxazin-2-amine], the Kb was 63.1 nM.
`CC[C@@H]1COc2c(nc(N)nc2N2CC[C@@H](N)C2)N1` [Example 2-1, (R)-4-((R)-3-Aminopyrrolidin-1-yl)-7-ethyl-7,8-dihydro-6H-pyrimido[5,4-b][1,4]oxazin-2-amine]: the Kb was 3.16 nM.
Next, `CN[C@@H]1CCN(c2nc(N)nc3c2O[C@@H](C)[C@H](C)N3)C1` [Example 1-18, (6S,7S)-6,7-Dimethyl-4-((R)-3-(methylamino)pyrrolidin-1-yl)-7,8-dihydro-6H-pyrimido[5,4-b][1,4]oxazin-2-amine]: 316 nM; `COC(C)(C)[C@@H]1COc2c(nc(N)nc2N2CC[C@@H](N)C2)N1` [Example 2-6, (S)-4-((R)-3-Aminopyrrolidin-1-yl)-7-(2-methoxypropan-2-yl)-7,8-dihydro-6H-pyrimido[5,4-b][1,4]oxazin-2-amine]: 20 nM; `CNC1CN(c2nc(N)nc3c2OC[C@@H](C2CC2)N3)C1` [Example 3-3, (R)-7-Cyclopropyl-4-(3-(methylamino)azetidin-1-yl)-7,8-dihydro-6H-pyrimido[5,4-b][1,4]oxazin-2-amine]: 7.94 nM.
`CNC1CN(c2nc(N)nc3c2OC[C@@H]([C@H](C)OC)N3)C1` [Example 3-5, (S)-7-((S)-1-Methoxyethyl)-4-(3-(methylamino)azetidin-1-yl)-7,8-dihydro-6H-pyrimido[5,4-b][1,4]oxazin-2-amine]: the Kb was 20 nM.
For the molecule `CN[C@@H]1CCN(c2nc(C)nc3c2OCC(C(C)C)N3)C1` (stereo partly drawn) [Example 10-1, (3R)-1-(7-Isopropyl-2-methyl-7,8-dihydro-6H-pyrimido[5,4-b][1,4]oxazin-4-yl)-N-methylpyrrolidin-3-amine], the Kb was 398 nM.
Consider `CN[C@@H]1CCN(c2nc(N)nc3c2O[C@H](C)[C@@H](C)N3)C1` [Example 1-17, (6R,7R)-6,7-Dimethyl-4-((R)-3-(methylamino)pyrrolidin-1-yl)-7,8-dihydro-6H-pyrimido[5,4-b][1,4]oxazin-2-amine], for which the Kb was 79.4 nM.
In the case of `CN[C@@H]1CCN(c2nc(N)nc3c2O[C@H](C)[C@H](C)N3)C1` [Example 1-19, (6R,7S)-6,7-Dimethyl-4-((R)-3-(methylamino)pyrrolidin-1-yl)-7,8-dihydro-6H-pyrimido[5,4-b][1,4]oxazin-2-amine], the Kb was 79.4 nM.
With `CN[C@@H]1CCN(c2ncnc3c2OC(C)CN3)C1` (stereo partly drawn) [Example 7-5, (3R)—N-Methyl-1-(6-methyl-7,8-dihydro-6H-pyrimido[5,4-b][1,4]oxazin-4-yl)pyrrolidin-3-amine], the Kb was 251 nM.
With `CN[C@@H]1CCN(c2nc(N)nc3c2OC[C@@H](C2CC2)N3)C1` [Example 1-6, (R)-7-Cyclopropyl-4-((R)-3-(methylamino)pyrrolidin-1-yl)-7,8-dihydro-6H-pyrimido[5,4-b][1,4]oxazin-2-amine], the Kb was 0.631 nM.
As to `CC[C@@H]1COc2c(nc(N)nc2N2CC(N)C2)N1` [Example 4-1, (R)-4-(3-Aminoazetidin-1-yl)-7-ethyl-7,8-dihydro-6H-pyrimido[5,4-b][1,4]oxazin-2-amine], the Kb was 79.4 nM.
As for `CC(C)[C@H]1CCOc2c(nc(N)nc2N2CC[C@@H](N)C2)N1` [Example 12-2, (R)-4-((R)-3-Aminopyrrolidin-1-yl)-8-isopropyl-6,7,8,9-tetrahydropyrimido[5,4-b][1,4]oxazepin-2-amine], the Kb is 39.8 nM.
Next, `CCC1CNc2nc(N)nc(N3CC[C@@H](NC)C3)c2OC1` (stereo partly drawn) [Example 11-8, 7-Ethyl-4-((R)-3-(methylamino)pyrrolidin-1-yl)-6,7,8,9-tetrahydropyrimido[5,4-b][1,4]oxazepin-2-amine]: 31.6 nM.
